Test results from patent US20260232753A1, “COMPOSITION FOR TREATING MACULAR DEGENERATION COMPRISING NOVEL PEPTIDE” (EYEBIOKOREA, INC., priority 2021, published 2026).
*1 amine or outer side, *2 acyl side, *3 side chain or, on linkers, in order; H or OH if unused. Where no end group is shown, it is not given here. [ ]: non-standard residue; d: D form. The star is where a group is joined. Pro(trans-4-NH2) = O=C([C@@H]1C[C@@H](N[*:3])CN1[*:1])[*:2]; Pro(4-methylene) = C=C1CN[C@H](C(=O)O)C1; Pro(cis-4-F) = O=C(O)[C@@H]1C[C@H](F)CN1; Pro(4,4-F2) = O=C(O)[C@@H]1CC(F)(F)CN1; Pro(4,4-Me2) = CC1(C)CN[C@H](C(=O)O)C1; Hyp = O=C(O)[C@@H]1C[C@@H](O)CN1; dHyp = O=C(O)[C@H]1C[C@H](O)CN1; Phg = N[C@H](C(=O)O)c1ccccc1; OiPr = CC(C)O*

Experiments:
[1] = test system: choroidal neovascularization (CNV); experiment: Inhibition of choroidal neovascularization: fluorescence value (CTF) at the CNV site by FFA, laser-induced CNV model, intravitreal injection; type: in vivo, C57BL/6 mice; settings: ten days after administration; for CTF (corrected total fluorescence) value: laser-induced CNV, 1 μL intravitreal, peptide 10 mg/mL or aflibercept 20 mg/mL, lower CTF = less CNV; for CNV inhibitory efficacy from fluorescence value of the CNV site (in words): intravitreal
Text: (§1) The CNV animal model used in the present invention is a mouse model in which lesions are induced by irradiating a laser to the choroid of C57BL/6 mice using a laser slit system. The laser-induced CNV model, first described in 1979, uses photocoagulation to disturb Bruch's membrane to induce the growth of choroidal neovascularization into the retina area, and it is similar in development to neovascular disease in the human retina, that is, wet macular degeneration (wet AMD), in that neovascularity arises from the choroid. In addition, the laser-induced CNV model was successful in predicting the clinical efficacy of anti-vascular endothelial growth factor (VEGF) treatment for neovascular AMD, and is an animal model used in the development stage of existing therapeutic agents (Gong Y, Li J, Sun Y, Fu Z, Liu C H, Evans L, et al. (2015) Optimization of an Image-Guided Laser-Induced Choroidal Neovascularization Model in Mice. PLOS ONE 10 (7)).
(§2) In order to evaluate the efficacy of the peptide of the present invention to inhibit the choroidal neovascularization (CNV), an experiment was performed as follows.
(§3) The eyes of 7-8 week old C57BL/6 mice were instilled with a mydriatic agent to dilate the pupils, and the mice were anesthetized by intraperitoneal injection of ketamine (50 mg/kg) and rompun (23.32 mg/kg). A slit-lamp laser injection system was used to irradiate the laser to the choroid of each eye of the mouse four times in the 12 o'clock, 3 o'clock, 6 o'clock, and 9 o'clock directions. At this time, the laser irradiation conditions were 532 nm, 80 msec, and 240 mW. Immediately after laser irradiation, 1 μL of each peptide at a concentration of 10 mg/mL or aflibercept at a concentration of 20 mg/mL, which was dissolved in PBS, was injected into the vitreous body using a syringe. Ten days after drug administration, the mice were anesthetized, and 2% fluorescein was administered to the abdominal cavity to stain blood vessels. The retina was photographed 2 to 3 minutes after fluorescein administration. The size and fluorescence value of CNV lesions induced by laser were measured using the ImageJ program, and in order to reduce the differences between subjects, the CTF (corrected total fluorescence) was calculated by removing the background, and the values of each group were compared. The results of all tests are expressed as mean±standard deviation, and significance was verified using one-way ANOVA and Kruskal-wallis test.

[2] = test system: choroidal neovascularization (CNV); experiment: Inhibition of choroidal neovascularization: optical coherence tomography, size of CNV lesion, intravitreal injection; type: in vivo, C57BL/6 mice; settings: laser-induced CNV; 1 μL intravitreal, peptide 10 mg/mL or aflibercept 20 mg/mL; ten days after administration; OCT
Text: as §1, §2
as §3, with “and” for “and 2% fluorescein was administered to”, “the” for “the abdominal cavity to stain blood vessels. The retina was photographed 2 to 3 minutes after fluorescein administration. The size and fluorescence value of”, “calculated and expressed as μm^2” for “measured”, “program” for “program, and in order to reduce the differences between subjects, the CTF (corrected total fluorescence) was calculated”, “transmitting an OCT beam for” for “removing the background, and the values of”, “burn.” for “group were compared.”

[3] = Stability of the peptide: content analysis by HPLC in aqueous solution under harsh conditions; type: physicochemical
Experimental: In order to evaluate the stability of the peptide of the present invention, an experiment was performed as follows.
The stability of the peptide was confirmed through content analysis in an aqueous solution at 40° C., 75% humidity, and harsh conditions, and was analyzed using HPLC under the following conditions. • Analysis column: C18 (4.6 Y 250 mm, 5 μm, YMC Hydrosphere) • Analysis wavelength: ultraviolet absorption spectrophotometer (210 nm) • Injection volume/Flow rate: 10 μL/0.8 mL/min • Column temperature: 45° C. • Mobile phase: 0.1 M phosphate buffer methanol mixture (83:17)

| Substance | CTF (corrected total fluorescence) value [1] | further results |
| --- | --- | --- |
| 4,4-difluoro-Pro-Gly-Gln-Asp-Gly ([Pro(4,4-F2)]GQDG) [Example 24] | + (+: 300,000 to 800,000) |  |
| 4,4-difluoro-Pro-Gly-Gln-Asp-Gly-Leu ([Pro(4,4-F2)]GQDGL) [Example 29] | + (+: 300,000 to 800,000) |  |
| 4,4-dimethyl Pro-Gly-Gln-Asp-Gly ([Pro(4,4-Me2)]GQDG) [Example 26] | + (+: 300,000 to 800,000) |  |
| 4,4-dimethyl Pro-Gly-Gln-Asp-Gly-Leu ([Pro(4,4-Me2)]GQDGL) [Example 31] | + (+: 300,000 to 800,000) |  |
| 4,4-dimethyl Pro-Gly-Gln-Asp-Gly-Leu-Ala ([Pro(4,4-Me2)]GQDGLA; also: X1: 4,4-dimethyl-Pro (name) or 4-methylene-L-proline) [Example 35] | + (+: 300,000 to 800,000) |  |
| 4-methylene-Pro-Gly-Gln-Asp-Gly ([Pro(4-methylene)]GQDG) [Example 25] | + (+: 300,000 to 800,000) |  |
| 4-methylene-Pro-Gly-Gln-Asp-Gly-Leu ([Pro(4-methylene)]GQDGL) [Example 30] | + (+: 300,000 to 800,000) |  |
| 4-methylene-Pro-Gly-Gln-Asp-Gly-Leu-Ala ([Pro(4-methylene)]GQDGLA) [Example 34] | + (+: 300,000 to 800,000) | Size of lesion [2]: 8,603 μm^2 |
| D-Hyp-Gly-Gln-Asp-Gly-Leu ([dHyp]GQDGL) [Example 13] | ++ (++: 200,000 to 300,000) | CNV inhibitory efficacy from fluorescence value of the CNV site (in words) [1]: very excellent inhibitory efficacy; Size of lesion [2]: 6,395 μm^2 |
| D-Hyp-Gly-Gln-Asp-Gly-Leu-Ala ([dHyp]GQDGLA) [Example 32] | + (+: 300,000 to 800,000) |  |
| Hyp-Gly-Gln-Asp-Ala ([Hyp]GQDA) [Example 3] | + (+: 300,000 to 800,000) | Size of lesion [2]: 6,491 μm^2 |
| Hyp-Gly-Gln-Asp-Ala-Leu ([Hyp]GQDAL) [Example 9] | ++ (++: 200,000 to 300,000) | CNV inhibitory efficacy from fluorescence value of the CNV site (in words) [1]: very excellent inhibitory efficacy |
| Hyp-Gly-Gln-Asp-Ala-Leu-Ala ([Hyp]GQDALA) [Example 16] | + (+: 300,000 to 800,000) |  |
| Hyp-Gly-Gln-Asp-Gly-D-Leu ([Hyp]GQDG[dL]) [Example 12] | + (+: 300,000 to 800,000) |  |
| Hyp-Gly-Gln-Asp-Gly-D-Leu-Ala ([Hyp]GQDG[dL]A) [Example 20] | + (+: 300,000 to 800,000) |  |
| Hyp-Gly-Gln-Asp-Gly-Leu-Ala-IPE ([Hyp]GQDGLA-OiPr) [Example 17] | ++ (++: 200,000 to 300,000) | CNV inhibitory efficacy from fluorescence value of the CNV site (in words) [1]: very excellent inhibitory efficacy; Size of lesion [2]: 5,978 μm^2 |
| Hyp-Gly-Gln-Asp-Gly-Leu-D-Ala ([Hyp]GQDGL[dA]) [Example 21] | + (+: 300,000 to 800,000) |  |
| Hyp-Gly-Gln-Asp-Leu ([Hyp]GQDL) [Example 2] | + (+: 300,000 to 800,000) |  |
| Hyp-Gly-Gln-Asp-Leu-Leu ([Hyp]GQDLL) [Example 8] | ++ (++: 200,000 to 300,000) | CNV inhibitory efficacy from fluorescence value of the CNV site (in words) [1]: very excellent inhibitory efficacy |
| Hyp-Gly-Gln-Asp-Leu-Leu-Ala ([Hyp]GQDLLA) [Example 15] | ++ (++: 200,000 to 300,000) | CNV inhibitory efficacy from fluorescence value of the CNV site (in words) [1]: very excellent inhibitory efficacy; Size of lesion [2]: 6,672 μm^2 |

| Substance | CTF (corrected total fluorescence) value [1] | further results |
| --- | --- | --- |
| Hyp-Gly-Gln-Asp-Val ([Hyp]GQDV) [Example 1] | +++ (+++: 100,000 to 200,000) | CNV inhibitory efficacy from fluorescence value of the CNV site (in words) [1]: very excellent inhibitory efficacy; Size of lesion [2]: 5,636 μm^2 |
| Hyp-Gly-Gln-Asp-Val-Leu ([Hyp]GQDVL) [Example 7] | ++ (++: 200,000 to 300,000) | CNV inhibitory efficacy from fluorescence value of the CNV site (in words) [1]: very excellent inhibitory efficacy; Size of lesion [2]: 6,046 μm^2 |
| Hyp-Gly-Gln-Asp-Val-Leu-Ala ([Hyp]GQDVLA) [Example 14] | ++ (++: 200,000 to 300,000) | CNV inhibitory efficacy from fluorescence value of the CNV site (in words) [1]: very excellent inhibitory efficacy; Size of lesion [2]: 5,407 μm^2 |
| Hyp-Gly-Gln-D-Asp-Gly-Leu ([Hyp]GQ[dD]GL) [Example 11] | + (+: 300,000 to 800,000) |  |
| Hyp-Gly-Gln-Glu-Gly ([Hyp]GQEG) [Example 36] | + (+: 300,000 to 800,000) |  |
| Hyp-Gly-Gln-Glu-Leu-Leu ([Hyp]GQELL) [Example 38] | + (+: 300,000 to 800,000) |  |
| Hyp-Gly-Gln-Glu-Val-Leu ([Hyp]GQEVL) [Example 39] | + (+: 300,000 to 800,000) |  |
| Hyp-Gly-Gln-Glu-phenyl-Gly-Leu-Ala ([Hyp]GQE[Phg]LA) [Example 45] | + (+: 300,000 to 800,000) | Content after 7 days ([3]; 40° C., 75% humidity, 7 days): 98.147%; Decrease rate ([3]; 40° C., 75% humidity, after 7 days): 0.439%; Initial content ([3]; HPLC, initial): 98.586% |
| [Hyp]GQ[dD]G [Example 5] | + (+: 300,000 to 800,000) |  |
| [Hyp]GQ[dD]GLA [Example 19] | + (+: 300,000 to 800,000) |  |
| [Hyp]G[dQ]DG [Example 4] | + (+: 300,000 to 800,000) |  |
| [Hyp]G[dQ]DGL [Example 10] | + (+: 300,000 to 800,000) |  |
| [Hyp]G[dQ]DGLA [Example 18] | + (+: 300,000 to 800,000) |  |
| [dHyp]GQDG [Example 6] | + (+: 300,000 to 800,000) |  |
| cis-4F-Pro-Gly-Gln-Asp-Gly ([Pro(cis-4-F)]GQDG) [Example 22] | + (+: 300,000 to 800,000) |  |
| cis-4F-Pro-Gly-Gln-Asp-Gly-Leu ([Pro(cis-4-F)]GQDGL) [Example 27] | +++ (+++: 100,000 to 200,000) | CNV inhibitory efficacy from fluorescence value of the CNV site (in words) [1]: very excellent inhibitory efficacy |
| cis-4F-Pro-Gly-Gln-Asp-Gly-Leu-Ala ([Pro(cis-4-F)]GQDGLA) [Example 33] | + (+: 300,000 to 800,000) |  |
| trans-4NH2-Pro-Gly-Gln-Asp-Gly ([Pro(trans-4-NH2)]GQDG) [Example 23] | ++ (++: 200,000 to 300,000) | CNV inhibitory efficacy from fluorescence value of the CNV site (in words) [1]: very excellent inhibitory efficacy |
| trans-4NH2-Pro-Gly-Gln-Asp-Gly-Leu ([Pro(trans-4-NH2)]GQDGL) [Example 28] | + (+: 300,000 to 800,000) |  |
